According to patent US20100311803A1, “METHOD FOR REDUCING INFLAMMATORY RESPONSES AND INFLAMMATION” (Adelaide Research & Innovation Pty Ltd, priority 2006, published 2010):

Legend:
[1] = Evan's blue leakage into brain tissue (blood brain barrier) after diffuse axonal brain injury; assay type: in vivo; settings: rat diffuse axonal injury
Protocol: (§1) We chose to use the compound N-acetyl-L-tryptophan. To induce a primary brain injury a rat model of diffuse axonal injury was used (Heath D L and Vink R (1997). Magnesium sulphate improves neurologic outcome following severe closed head injury in rats. Neurosci Lett; 228: 175-8). N-acetyl-L-tryptophan was then administered intravenously 30 minutes after injury, whilst control animals received drug vehicle alone.

[2] = tested on: IL-6 mRNA; assay: IL-6 mRNA expression in brain tissue after brain injury (RT-PCR); assay type: in vivo, rat; settings: 10^−5 mol/kg i.v. 30 minutes after injury; brain tissue at 6 hours after injury; normalised to rpL32 (FIG. 3)
Protocol: (§2) In order to examine the effects on the cellular inflammatory response, N-acetyl-L-tryptophan was administered intravenously at a dose of 10^−5 mol/kg after injury. The expression of mRNA for the inflammatory cytokines IL-1β, IL-6 and TNFα in brain tissue was determined by reverse transcription followed by a polymerase chain reaction (RT-PCR). mRNA levels were normalised with respect to expression of rpL32. Brain tissue samples were collected at 6 hours after injury. Levels of expression of mRNA for the inflammatory cytokines were compared in non-injured animals (sham), injured animals administered drug vehicle alone (control), and injured animals administered a substance P receptor antagonist (NK1). mRNA expression was determined for IL-1β (FIG. 2), IL-6 (FIG. 3) and TNFα (FIG. 4).

[3] = tested on: TNFα mRNA; assay: TNFα mRNA expression in brain tissue after brain injury (RT-PCR); assay type: in vivo, rat; settings: 10^−5 mol/kg i.v. 30 minutes after injury; brain tissue at 6 hours after injury; normalised to rpL32 (FIG. 4)
Protocol: as §2

[4] = Functional outcome and recovery after trauma or trauma plus hypoxia and hypotension; assay type: in vivo, rat; settings: either trauma, or trauma plus hypoxia and hypotension
Protocol: A whole variety of severe insults are capable of triggering a systemic inflammatory response, and subsequent shock reaction. Two approaches were used in these studies, namely trauma (diffuse axonal injury), and an extended period of hypoxia and hypotension. N-acetyl-L-tryptophan was administered intravenously 30 minutes after the insult, whilst control animals received drug vehicle alone. […] This level of recovery was never seen in the non-treated animals.

[5] = Functional outcome and mortality of brain-injured animals; assay type: in vivo, rat; settings: brain injury; administered after injury
Protocol: as §1
In order to examine the effects on the cellular inflammatory response, N-acetyl-L-tryptophan was administered intravenously at a dose of 10^−5 mol/kg after injury.

[6] = tested on: IL-1β mRNA; assay: IL-1β mRNA expression in brain tissue after brain injury (RT-PCR); assay type: in vivo, rat; settings: 10^−5 mol/kg i.v. 30 minutes after injury; brain tissue at 6 hours after injury; normalised to rpL32 (FIG. 2)
Protocol: as §2

[7] = tested on: serum interleukin 6; assay: Serum IL-6 levels (ELISA) after systemic insult (trauma; trauma plus hypoxia and hypotension); assay type: in vivo, rat; settings: 10^−5 mol/kg i.v. 30 minutes after the insult
Protocol: A whole variety of severe insults are capable of triggering a systemic inflammatory response, and subsequent shock reaction. Two approaches were used in these studies, namely trauma (diffuse axonal injury), and an extended period of hypoxia and hypotension. N-acetyl-L-tryptophan was administered intravenously 30 minutes after the insult, whilst control animals received drug vehicle alone. A systemic inflammatory response, generated as a result of these triggers, was determined by a rise in serum interleukin 6 levels. Blood samples were collected at 6 hours after the insult. Changes in serum IL-6 levels were quantified using an enzyme-linked immunosorbent assay (ELISA). In order to examine the effects of an NK1 antagonist on the systemic inflammatory response, N-acetyl-L-tryptophan was administered intravenously at a dose of 10^−5 mol/kg 30 minutes after the insult. Serum levels of IL-6 were compared between animals that were not subject to any insult (sham), animals subject to an insult and then administered drug vehicle alone (control), and animals subject to an insult and administered a substance P receptor antagonist (NK1). IL-6 levels were determined following trauma (FIG. 5), and trauma followed by 15 minutes of hypoxia and hypotension (FIG. 6).

**Q.** With CC(=O)N[C@@H](Cc1c[nH]c2ccccc12)C(=O)O [N-acetyl-L-tryptophan] as the compound, how does the “closure of the blood-brain barrier, dependence on dose” value ([1]; intravenously 30 minutes after injury (FIG. 1)) read?
**A.** dose-dependent manner

**Q.** And the “leakage of Evan's blue dye into the brain tissue (closure of the blood brain barrier)” value ([1]; intravenously 30 minutes after injury, vs vehicle control (FIG. 1))?
**A.** reduced leakage

**Q.** What about the “expression of IL-6 mRNA in brain tissue with respect to non-injured animals” value [2] of the same compound?
**A.** no significant differences

**Q.** What about the “expression of TNFα mRNA in brain tissue with respect to non-injured animals” value [3] of the same compound?
**A.** no significant differences

**Q.** What about the “time to normal physiological (spontaneous breathing) and behavioural (feeding and grooming) responses after treatment” value [4] of the same compound?
**A.** ≤ 60 minutes

**Q.** What about the “functional outcome of the animals” value ([4]; i.v. 30 minutes after the insult) of the same compound?
**A.** significantly improved

**Q.** And the “functional outcome of the injured animals (motor, cognitive and behavioural outcomes)” value [5]?
**A.** significantly improved

**Q.** What about the mortality [5] of the same compound?
**A.** significant reduction

**Q.** What about the “expression of IL-1β mRNA in brain tissue with respect to non-injured animals” value [6] of the same compound?
**A.** no significant differences

**Q.** What about the “serum IL-6 levels with respect to sham animals” value ([7]; trauma (diffuse axonal injury), blood at 6 hours (FIG. 5)) of the same compound?
**A.** no significant differences

**Q.** And the “serum IL-6 levels with respect to sham animals” value ([7]; trauma followed by 15 minutes of hypoxia and hypotension, blood at 6 hours (FIG. 6))?
**A.** no significant differences
